{
  "source": "ChEMBL document CHEMBL3045907",
  "about": "“Discovery and development of pyridalyl” (J Pestic Sci, 2012)",
  "key": {"[1]": {"test": "Solubility of the compound in water", "format": "physicochemical", "conditions": "buffer"}, "[2]": {"test": "Acute toxicity in Rattus norvegicus (rat) compound administered through inhalation", "format": "organism-based", "conditions": "in vivo, inhaled or intranasal"}, "[3]": {"test": "Acute toxicity in Rattus norvegicus (rat) compound administered intradermally", "format": "organism-based", "conditions": "in vivo"}, "[4]": {"test": "Acute toxicity in po dosed Rattus norvegicus (rat)", "format": "organism-based", "conditions": "in vivo"}, "[5]": {"test": "Toxicity in Cyprinidae (carp fish)", "format": "ADME, organism-based", "conditions": "in vivo"}, "[6]": {"test": "Octanol-water partition co-efficient, log P of the compound at 20 degC", "format": "physicochemical"}},
  "data": [
    {"compound": "FC(F)(F)c1ccc(OCCCOc2c(Cl)cc(OCC=C(Cl)Cl)cc2Cl)nc1", "note": "[PYRIDALYL]", "values": [
      {"measurement": "solubility", "setting": "[1]", "value": 0.15, "unit": "ppb"},
      {"measurement": "LC50", "setting": "[2]", "value": "> 2.01", "unit": "µg/mL"},
      {"measurement": "LD50", "setting": "[3]", "value": "> 2000", "unit": "mg/kg"},
      {"measurement": "LD50", "setting": "[4]", "value": "> 5000", "unit": "mg/kg"},
      {"measurement": "LC50", "setting": "[5]", "value": "> 10", "unit": "µg/mL"},
      {"measurement": "logP", "setting": "[6]", "value": 8.1}
    ]}
  ]
}
